In patent US20250213647A1, “CHEMOKINE RECEPTORS AND ALPHA1 ADRENERGIC RECEPTORS/VASOPRESSIN RECEPTORS 1A HETEROMERS AS DRUG TARGETS FOR DISEASE” (UNIVERSITY OF SOUTH FLORIDA, priority 2022, published 2025):

Legend:
[1] = test system: heteromeric complexes between α1B/D-ARs and CCR1, CCR2, CXCR4; assay: Proximity ligation assay, receptor-receptor interactions on THP-1 cells; settings: 10 μM, 30 min at 37° C.; FIG. 8
CCR2 [2] = target: T1, CCR2 (Homo sapiens, UniProt P41597); assay: BRET assay for β-arrestin recruitment, HEK293T with CCR2-Rluc and β-arrestin-YFP without α1b-AR; assay type: cell-based; settings: 10 μM PE, PT or 100 nM INCB3284, FIG. 5C
Description: β-arrestin recruitment was measured by BRET, as described (Armando, 2014; Berchiche, 2011). In brief, HEK293T cells were plated in a 6-well plate and transfected with 0.1 μg of CCR2-RluII and 1.9 μg β-arrestin-YFP with 0.1 μg pcDNA3.1 or α1b-AR. One day after transfection, cells were re-plated into 96-well poly-L lysine precoated plates. After overnight incubation, cells were replaced with 0.1% glucose/PBS. Coelenterazine H in a final concentration of 5 μM was added to cells and incubated at room temperature for 3 min. […] The BRET changes were calculated by subtracting the BRET signal of untreated cells.

CCR8 = assay: Chemotaxis assay, THP-1 cells toward CCL1 (CCR8-mediated); assay type: cell-based, human
Description: (§1) Cell migration was measured employing the Neuroprobe (Gaithersburg, MD, USA) ChemoTx® Disposable Chemotaxis System. A 96-well Boyden-chamber (30 μL/well, 8 μm pores, 1×10^5 pores/cm^2 pore density) was selected for all chemotaxis experiments. Bottom wells of the Boyden-chamber were loaded with 30 μL of test substances at various concentrations. Top wells of the membrane were loaded with 25 μL of THP-1 cells, THP-1_ADRA1B^KO, wild type THP-1 cells after clonal expansion (=control for THP-1_ADRA1B^KO) or freshly isolated monocytes (200 cells/μL). THP-1 cells were suspended in depleted RPMI1640 (0.5% HyClone™ fetal bovine serum, Sigma); Freshly isolated monocytes were suspended in RPMI1640 (0.5% human platelet poor plasma, Sigma). After 3 hours, transmigrated cells were counted utilizing the Cytation 1 plate reader (BioTek) by direct imaging in high contrast bright field (4×) and post-imaging particle analyses with Gen5 (v3.05) Imaging & Microscopy Software (BioTek). The chemotactic index (CI) was calculated as the ratio of cells that transmigrated in the presence versus the absence of the test solutions.

[3] = test system: THP-1 cells (CCR2-mediated Gαi signaling); assay: Cyclic AMP measurement in forskolin-stimulated THP-1 cells; assay type: cell-based, human; settings: forskolin-stimulated THP-1 cells; 1 μM PE, 1 μM PT or 100 nM NE; 15 min at 37° C.; FIG. 4G, 4H
Description: Cyclic AMP amounts were measured using the cAMP complete enzyme immunoassay kit, acetylated format (Enzo Life Sciences). 4×10^5 cells were incubated with forskolin/isobutylmethylxanthine (10 μM/0.5 mM final concentrations) in 0.1% BSA/10 mM Hepes-buffered RPMI and treated with CCL2 in the presence or absence of 1 μM PE, 1 μM PT or 100 nM NE at 37° C. for 15 min. The cells were lysed by incubating with 0.1 M HCl at room temperature for 20 min. The cAMP amounts in the lysate supernatant were measured following the manufacturer's instructions.

α1b-AR:CCR2 heteromer = target: T2, α1b-AR:CCR2 heteromer (Homo sapiens, UniProt P35368+P41597); assay: Gαi activation assay (TRUPATH BRET), HEK293T cells transfected with CCR2 plus α1b-AR; assay type: cell-based; settings: for Gαi1 activation by the ligand alone: cells transfected with α1b-AR alone, CCR2 alone or CCR2 plus α1b-AR, FIG. 4A
T2 construct: expressed in transfected cells; host or cells: HEK293T
Description: HEK293T cells were plated in a 6-well plate and transfected with 0.2 μg each of Gαi1-Rluc8, Gβ3 and Gγ9-GFP2 (Trupath) together with 0.2 μg of mouse or human CCR2 with either pcDNA3.1 or α1b-AR. One day after transfection, cells were trypsinized and replated to 96-well poly-L lysine precoated plates. After overnight incubation, cells were replaced with 0.1% glucose/PBS. Prolume Purple (NanoLight Tech.) or coelenterazine 400a in a final concentration of 5 μM were added in experiments with human or mouse CCR2, respectively, and incubated at room temperature for 3 min. Ligands at various concentrations were added to cells and incubated at room temperature for 5 min before luminescence was measured at 410 nm and 515 nm. […] The BRET changes were calculated by subtracting the BRET signal of untreated cells.

[4] = test system: leukocyte infiltration into dorsal air pouches; assay: Murine air pouch model, leukocyte infiltration; assay type: in vivo, C57BL/6 mice; settings: co-injected into the air pouch; phenylephrine 10-100 mg/kg, phentolamine 5-50 mg/kg; 24 h; FIG. 9B-D
Description: All procedures were performed according to the National Institutes of Health Guidelines for Use of Laboratory Animals and were approved by the Institutional Animal Care and Use Committee of the University of South Florida (IS00010570). Male and female C57BL/6 mice (20-25 g) were obtained from Envigo (Indianapolis, IN). Six days prior to the start of the experiments, mice were anesthetized with 1.7% sevoflurane, the dorsal cervical/thoracic region was shaved, disinfected with 70% ethanol and 3 mL of sterile air were injected subcutaneously (s.c.) to create an air pouch. […] 5 ml ice cold lavage fluid was injected into each air pouch using a syringe with a 23-G, 1-inch needle, the air pouch was gently massaged for 60 seconds, the lavage fluid was harvested using the same syringe and needle and the recovered volume was recorded. […] Erythrocytes in the cell pellets were lysed with Invitrogen 1× RBC lysis buffer and the harvested air pouch cells analyzed by flow cytometry.
Harvested air pouch cells were incubated with APC-conjugated anti-mouse CD45 or APC-conjugated immunoglobulin G 2B (IgG2B; isotype control) for 145 min in the dark at room temperature. […] Cells were then washed again, resuspended in PBS, and the cell-associated light scatter and fluorescence were determined with a LSRII instrument (Becton Dickinson). […]

CXCR4 [5] = settings: previous observations (Gao, 2018); cited from earlier work
[6] = test system: α1B/D-AR, CCR1, CCR2, CXCR4, CCR8; assay: Proximity ligation assay, individual receptors on THP-1 cells; settings: 10 μM, 30 min at 37° C., FIG. 6; for cell surface expression of α1B/D-AR, CCR1, CCR2 and CXCR4 (PLA signals): vs vehicle
CCR2 [7] = target: T1, CCR2; assay: PRESTO-Tango β-arrestin recruitment assay, HTLA cells with CCR2-Tango plus pcDNA3; assay type: cell-based; settings: absence of α1b-AR; FIG. 5A
Description: The assays were performed as described previously (Albee, 2017; Gao, 2022; Albee, 2018; Eby, 2017; Cheng, 2017). HTLA cells were seeded in a 6-well plate and transfected with 750 ng FLAG-CCR2-Tango together with 750 ng pcDNA3.1 or HA-α1b-AR using TransIT-2020 Transfection Reagent. The next day, cells (75,000 cells/well) were plated onto poly-L-Lysine pre-coated 96-well plates and allowed to attach to the plate surface for at least 4 hours prior to treatment. Cells were treated with receptor ligands at the concentrations indicated in the figure legends for 2 h and then replaced with fresh full medium and incubated overnight at 37° C., 5% CO2 in a humidified environment. The following morning, medium was replaced with a 100 μL 1:10 mixture of Bright-Glo (Promega) and PBS. Plates were then incubated at room temperature for 10 min before measuring luminescence on a Biotek Synergy II plate reader. Relative luminescence units (RLU) are expressed as fold changes of RLU vs unstimulated cells.

CXCR4 [8] = assay: Chemotaxis assay, THP-1 cells toward CXCL12 (CXCR4-mediated); assay type: cell-based, human; settings: CXCL12 100 nM, mean±SE, read-out: IC50 for inhibition of CXCR4-mediated chemotaxis
Description: as §1

CCR2 [9] = target: T1, CCR2; set-up: host or cells: THP-1; settings: previous finding (Enten, 2022); cited from earlier work

T1 sequence (P41597 whole entry): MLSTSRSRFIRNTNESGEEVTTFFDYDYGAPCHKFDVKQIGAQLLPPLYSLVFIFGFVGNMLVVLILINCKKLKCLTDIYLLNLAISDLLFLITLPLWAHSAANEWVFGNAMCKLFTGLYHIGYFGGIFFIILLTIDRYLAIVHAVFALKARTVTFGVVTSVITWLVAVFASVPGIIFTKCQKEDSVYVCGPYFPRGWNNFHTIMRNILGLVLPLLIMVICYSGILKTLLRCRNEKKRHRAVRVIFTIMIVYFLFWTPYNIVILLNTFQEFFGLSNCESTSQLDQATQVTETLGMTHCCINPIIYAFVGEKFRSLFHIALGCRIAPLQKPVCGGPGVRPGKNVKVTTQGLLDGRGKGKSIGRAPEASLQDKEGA
T2 sequence (P41597 whole entry): as above
T2 sequence (P35368 whole entry): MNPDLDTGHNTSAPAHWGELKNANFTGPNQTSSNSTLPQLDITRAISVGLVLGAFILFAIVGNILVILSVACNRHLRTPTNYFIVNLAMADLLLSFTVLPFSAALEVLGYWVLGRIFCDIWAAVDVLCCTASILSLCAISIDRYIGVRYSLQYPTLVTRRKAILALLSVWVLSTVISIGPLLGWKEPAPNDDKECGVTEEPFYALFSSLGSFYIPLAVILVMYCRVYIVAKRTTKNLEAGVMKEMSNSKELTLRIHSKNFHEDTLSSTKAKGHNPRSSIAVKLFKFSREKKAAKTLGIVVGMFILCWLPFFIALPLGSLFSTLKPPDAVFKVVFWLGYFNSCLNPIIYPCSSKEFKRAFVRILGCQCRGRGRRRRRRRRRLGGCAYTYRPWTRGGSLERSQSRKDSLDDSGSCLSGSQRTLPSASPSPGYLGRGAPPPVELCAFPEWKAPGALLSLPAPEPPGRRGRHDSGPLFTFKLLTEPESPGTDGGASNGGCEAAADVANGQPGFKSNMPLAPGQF

Cc1ccc(N(CC2=NCCN2)c2cccc(O)c2)cc1 [phentolamine]
heteromeric complexes between α1B/D-ARs and their chemokine heteromerization partners (PLA signals) [1]: reduced
effect on the CCL2-induced BRET signal (CCR2-Rluc / β-arrestin-YFP) (CCR2 [2]): not affected
CCR8-mediated chemotaxis (CCR8): did not affect
effect on the effects of CCL2 on cAMP production [3]: inhibited the effects of CCL2 on cAMP production
bottom plateau, CCL2-induced Gαi activation in the presence of the ligand (α1b-AR:CCR2 heteromer; CCL2 plus 10 μM PT, FIG. 4F): −0.033±0.002
Gαi1 activation by the ligand alone (α1b-AR:CCR2 heteromer): did not activate Gαi1
leukocyte infiltration induced by LPS, CCL2 or CXCL12 [4]: inhibited in a dose-dependent manner
CXCR4-mediated chemotaxis of primary human vascular smooth muscle cells (CXCR4 [5]): inhibit
cell surface expression of α1B/D-AR, CCR1, CCR2 and CXCR4 (PLA signals) [6]: did not affect
β-arrestin recruitment to CCR2-Tango by the ligand (CCR2 [7]): did not induce
IC50 (CXCR4 [8]): 0.2 ± 0.2 nM
binding affinity of CCR2 for CCL2 (CCR2 [9]): did not affect

CNC[C@H](O)c1cccc(O)c1 [phenylephrine]
heteromeric complexes between α1B/D-ARs and their chemokine heteromerization partners (PLA signals) [1]: reduced
effect on the CCL2-induced BRET signal (CCR2-Rluc / β-arrestin-YFP) (CCR2 [2]): not affected
CCR8-mediated chemotaxis (CCR8): did not affect
effect on the effects of CCL2 on cAMP production [3]: inhibited the effects of CCL2 on cAMP production
bottom plateau, CCL2-induced Gαi activation in the presence of the ligand (α1b-AR:CCR2 heteromer; CCL2 plus 1 μM NE, FIG. 4D): −0.031±0.002
bottom plateau, CCL2-induced Gαi activation in the presence of the ligand (α1b-AR:CCR2 heteromer; CCL2 plus 10 μM PE, FIG. 4C): −0.03±0.002
Gαi1 activation by the ligand alone (α1b-AR:CCR2 heteromer): did not activate Gαi1
leukocyte infiltration induced by LPS, CCL2 or CXCL12 [4]: inhibited in a dose-dependent manner
CXCR4-mediated chemotaxis of primary human vascular smooth muscle cells (CXCR4 [5]): inhibit
expression of CCR8 (PLA signals) [6]: not affected
cell surface expression of α1B/D-AR, CCR1, CCR2 and CXCR4 (PLA signals) [6]: reduced
β-arrestin recruitment to CCR2-Tango by the ligand (CCR2 [7]): did not induce
IC50 (CXCR4 [8]): 17 ± 29 nM
binding affinity of CCR2 for CCL2 (CCR2 [9]): did not affect
